Molecules are shown by their SMILES. In brackets after ≈: the same amount, converted by molar mass.

For data set [1], the system named is hPSC cell line. Description: Chromatin immunoprecipitation for VDR and SMAD3. The data set is classed as cell-based, human. Particulars: 100 nM Cal 16 h pretreatment, 1 ng/ml TGFβ 4 h. Here is the method:
The hPSC cell line was utilized for chromatin immunoprecipitation, which was described previously (Barish et al., 2010). Briefly, cells were fixed in 1% formaldehyde, and nuclei were isolated and lysed in buffer containing 1% SDS, 10 mM EDTA, 50 mM Tris-HCl pH 8.0, and protease inhibitors, and sheared with a Diagenode Bioruptor to chromatin fragment sizes of 200-1000 base pairs. Chromatin was immunoprecipitated with antibodies to VDR (C-20, Santa Cruz Biotechnology), SMAD3 (Abcam), or rabbit IgG (Santa Cruz Biotechnology).

Data set [2] has as its system KPC mice with pancreatic ductal adenocarcinoma. Description: KPC mouse PDA study. It is filed as in vivo. Particulars: Cal alone. Here is the method:
KPC mice with pancreatic ductal adenocarcinoma were used based on tumor size, as described previously (Olive et al., 2009). In this study, enrollment was restricted to mice with tumors of a mean diameter between 6 and 9 mm, as determined by high resolution ultrasound imaging. Suitable mice were assigned to a treatment group: gemcitabine; calcipotriol; or gemcitabine and calcipotriol combination. Gemcitabine was administered as a saline solution at 100 mg/kg by intraperitoneal injection, once every three days; when appropriate, a final dose was given two hours prior to euthanasia. Calcipotriol was administered as a saline solution daily at 60 μg/kg by intraperitoneal injection. […]
LC-MS/MS was performed as described by Bapiro et al. (Bapiro et al., 2011). […] Analytes were separated using a gradient of acetonitrile in 10 mM ammonium acetate, pH 10 and detected using a Thermo LTQ-XL mass spectrometer (Thermo Fisher Scientific). Drugs recoveries were normalized using the internal standards and quantified using calibration standards generated from untreated tissue homogenates as described (Bapiro et al., 2011).
Tumors harvested from treated KPC mice were immediately fixed in buffered formalin. […] CD31-positive area was quantified in each section using Nuance software. […] Total tumor cells were quantified per field, as well as total and percent CC3-positive tumor cells per field. […]

For data set [3] the following is noted: cited from earlier work.

Take `C=C1/C(=C\C=C2/CCC[C@]3(C)[C@@H]([C@H](C)/C=C/[C@@H](O)C4CC4)CC[C@@H]23)C[C@@H](O)C[C@@H]1O` [Cal, 1α,24-(OH)2-24-cyclopropyl-D3]: in data set [1], the “SMAD3 binding in promoter regions of fibrogenic genes (HAS2, COL1A1)” value is “decreasing SMAD3 binding” and the “VDR binding in promoter regions of fibrogenic genes (HAS2, COL1A1)” value is “increased VDR binding”. The “efficacy as a single agent” value in data set [2] was “no measurable beneficial effects”. Also, in data set [3] (DMSO), the “solubility in DMSO” value was 100 mM (≈ 41.3 mg/mL). The solubility in ethanol in data set [3] (ethanol) is given as 100 mM (≈ 41.3 mg/mL).

The values are drawn from US9895381B2, “Vitamin D receptor agonists to treat diseases involving CXCL12 activity” (Salk Institute for Biological Studies, priority 2013, dated 2018).
